Source: patent publication US8361780B2, “Biological system and assay for identifying modulators of tubulin ligases” (University of Georgia Research Foundation, Inc., priority 2005, dated 2013)

How the values were obtained:
[1] = test system: zebrafish embryos; experiment: Morphology of zebrafish morphant embryos; conditions: in vivo
Excerpt: (§1) MO Knockdowns in Zebrafish Embryos. TTLL3-ATG MO (5′ […] 3′; SEQ ID NO:129) and TTLL3-SP MO (5′ […] 3; SEQ ID NO:130) were obtained from Open Biosystems (Huntsville, AL). TTLL3-ATG targets the translation initiation site of ttll3 mRNA. TTLL3-SP is predicted to prevent splicing of exon 11 and cause a frame shift in exon 12. This would eliminate the coding sequence downstream of exon 10, which includes a conserved catalytic domain-encoding region. To evaluate the effect of TTLL3-SP on ttll3 mRNA, total RNA was isolated with TRIzol reagent (Invitrogen, Inc., Carlsbad, Calif.) from embryos at 7 hpf: 50 uninjected control embryos, 40 embryos injected with 3 ng TTLL3-SP MO, or 30 embryos injected with 5 ng TTLL3-SP MO. Total RNA ([…]) was used as a template for cDNA synthesis with random hexamers and oligo-dT primers and the iScript TM cDNA synthesis kit (Bio-Rad Laboratories, Hercules, Calif.). cDNA ([…]) was amplified with the following primers spanning exon 11: TTLL3-splice F, 5′-[…]-3′ (exon 10; SEQ ID NO:131); TTLL3-splice R, 5′-[…]-3′ (exon 12; SEQ ID NO:132). As expected, primers flanking exon 11 produced a shorter product in RT-PCR from embryos injected with TTLL3-SP than in controls (FIG. 50D). […] As a negative control, we injected 25 base MOs with a random base mixture at each position (Gene Tools, Inc., Philomath, Oreg.).

[2] = test system: zebrafish embryos; experiment: Expression pattern of southpaw in zebrafish embryos (in situ hybridization); format: in vivo
Excerpt: as §1
(§2) Microscopy of Zebrafish. For whole-mount, in situ hybridization, embryos were fixed as previously described (Hagos and Dougan, 2007), stored in 100% methanol at −20° C., and stained with spaw, lefty1, lefty2, and cmlc2 probes (Yelon, 2001). Embryos were photographed under differential interference contrast with a Zeiss Axioplan 2 microscope with Slidebook (Intelligent Imaging Innovations, Denver, Colo.). For immunofluorescence, the embryos were manually dechorionated and fixed with 0.5% Triton X-100 and 4% paraformaldehyde in PBT (0.1% Tween-20 in PBS) at 4° C. overnight. After washing with PBT, embryos were dehydrated in methanol/PBT series and incubated overnight in 100% methanol at −20° C. After rehydration, embryos were blocked for 1-2 hr in 2% BSA, 0.5% normal goat serum,l%DMSO, 0.5% Triton X-100 in PBS, and incubated overnight at 4° C. with one of the following antibodies: 6-11 B-1 (1:1000); TAP952 (1:2000); AXO49 (1:2000); and GT335 (1:1000); polyE (1:500). After washing 3×10 min with 0.5% Triton X-100 in PBS, embryos were incubated overnight at 4° C. in anti-mouse-IgG-FITC or anti-rabbit-IgG-Cy3 (1:500; Zymed), washed (3×10 min), mounted in 100 mg/ml of DABCO (Sigma-Aldrich) in PBS, and examined on a Leica TCS SP confocal microscope.

[3] = test system: zebrafish embryos; experiment: Expression pattern of lefty2 in zebrafish embryos (in situ hybridization); format: in vivo
Excerpt: as §1, §2

[4] = test system: zebrafish embryos; experiment: Heart position in zebrafish embryos, scoring live embryos; format: in vivo
Excerpt: as §1

[5] = test system: zebrafish embryos; experiment: Heart position in zebrafish embryos, in situ hybridization; format: in vivo
Excerpt: as §1, §2

[6] = test system: zebrafish embryos; experiment: Tubulin monoglycylation in cilia of zebrafish embryos (TAP952 immunofluorescence); format: in vivo; conditions: 72 hpf; TTLL3-ATG MO 1 ng, TTLL3-SP MO 3 ng
Excerpt: as §1, §2

[7] = test system: ttll3 mRNA; experiment: RT-PCR assay for TTLL3 mRNA in injected zebrafish embryos; format: in vivo; conditions: embryos at 7 hpf, 3 or 5 ng
Excerpt: as §1

Question: For “TTLL3-SP-MO: antisense morpholino 5′ GATGTACAGAGCTGAGATTGAAAAG 3; blocks splicing at the intron 10/exon 11 junction of ttll3 mRNA (all phosphorodiamidate morpholino (PMO))”, which hydrocephalic morphants [1] is on record?
Answer: The hydrocephalic morphants was 81%.

Question: And the “morphant embryos with curly tail” value [1]?
Answer: Its value is 64.3%.

Question: And the “southpaw expression: Bilatera or midline, number of embryos” value [2]?
Answer: Its value is 22.

Question: What about the “southpaw expression: Bilatera or midline, percent of embryos” value [2] of the same substance?
Answer: Its value is “(53.7%)”.

Question: What about the “southpaw expression: No specific signal, number of embryos” value [2] of the same substance?
Answer: The value was 6.

Question: And the “southpaw expression: No specific signal, percent of embryos” value [2]?
Answer: The value was “(14.6%)”.

Question: And the “southpaw expression: left, number of embryos” value [2]?
Answer: The value was 12.

Question: And the “southpaw expression: left, percent of embryos” value [2]?
Answer: Its value is “(29.3%)”.

Question: What about the “southpaw expression: right, number of embryos” value [2] of the same substance?
Answer: Its value is 1.

Question: And the “southpaw expression: right, percent of embryos” value [2]?
Answer: Its value is “(2.4%)”.

Question: What about the “lefty2 expression: Bilatera or midline, number of embryos” value [3] of the same substance?
Answer: The value was 2.

Question: And the “lefty2 expression: Bilatera or midline, percent of embryos” value [3]?
Answer: The value was “(4.8%)”.

Question: And the “lefty2 expression: No specific signal, number of embryos” value [3]?
Answer: The value was 16.

Question: And the “lefty2 expression: No specific signal, percent of embryos” value [3]?
Answer: The value was “(38.1%)”.

Question: And the “lefty2 expression: left, number of embryos” value [3]?
Answer: The value was 21.

Question: What about the “lefty2 expression: left, percent of embryos” value [3] of the same substance?
Answer: Its value is “(50%)”.

Question: And the “lefty2 expression: right, number of embryos” value [3]?
Answer: Its value is 3.

Question: What about the “lefty2 expression: right, percent of embryos” value [3] of the same substance?
Answer: Its value is “(7.1%)”.

Question: What about the “heart position left, number of embryos” value [4] of the same substance?
Answer: The value was 21.

Question: And the “heart position left, percent of embryos” value [4]?
Answer: Its value is 64%.

Question: What about the “heart position middle, number of embryos” value [4] of the same substance?
Answer: Its value is 8.

Question: And the “heart position middle, percent of embryos” value [4]?
Answer: The value was 24%.

Question: And the “heart position right, number of embryos” value [4]?
Answer: Its value is 4.

Question: And the “heart position right, percent of embryos” value [4]?
Answer: The value was “(12%)”.

Question: And the “heart position left, number of embryos” value [5]?
Answer: The value was 23.

Question: And the “heart position left, percent of embryos” value [5]?
Answer: Its value is 57.5%.

Question: And the “heart position middle, number of embryos” value [5]?
Answer: The value was 6.

Question: What about the “heart position middle, percent of embryos” value [5] of the same substance?
Answer: The value was 15%.

Question: And the “heart position right, number of embryos” value [5]?
Answer: The value was 11.

Question: What about the “heart position right, percent of embryos” value [5] of the same substance?
Answer: The value was “(27.5%)”.

Question: What about the “levels of tubulin monoglycylation/glycylation in cilia” value [6] of the same substance?
Answer: Its value is “reduced”.

Question: And the “levels of endogenous TTLL3 mRNA” value [7]?
Answer: Its value is “dramatic reduction”.
